Legend:
α-glucosidase = α-glucosidase (Saccharomyces cerevisiae, UniProt P53341); assay: α-Glucosidase inhibitory activity assay (p-nitrophenyl-α-glucopyranoside hydrolysis, absorbance at 400 nm); format: biochemical; conditions: for type of inhibition of α-glucosidase (Lineweaver-Burk plot method): kinetic studies at increasing concentration of substrates and inhibitors
Protocol: α-Glucosidase was assayed according to standard procedures by following the hydrolysis of nitrophenyl glycosides by monitoring formation of p-nitrophenol spectrometrically at 400 nm. The reaction mixture (final volume, 1 mL) consisted of the enzyme solution (20 μL, Sigma 9001-42-7, E.C 3.2.1.20), substrate (10 mM p-nitrophenyl-α-glucopyranoside, 20 μL, Fluka, BioChemika, Buchs, Switzerland) in 50 mM potassium phosphate buffer (pH 7.0) and test sample dissolved in DMSO (20 μL). The inhibitors were pre-incubated with the enzyme at 37 °C for 30 min, and the substrate was then added. The reaction was monitored spectrophotometrically by measuring the absorbance at 400 nm. […] The inhibitory activity of test compound was determined as a percentage in comparison to a blank according with the following equation: The inhibition rates (%) = [(ODcontrol − ODcontrol blank) − (ODtest − ODtest blank)]/(ODcontrol − ODcontrol blank) × 100%. The IC50 values of compounds were calculated by the nonlinear regression analysis and expressed as the mean ± SD of two distinct experiments. Kinetic parameters were determined using the Lineweaver-Burk double-reciprocal plot method at increasing concentration of substrates and inhibitors.

Chain of α-glucosidase (P53341 whole entry): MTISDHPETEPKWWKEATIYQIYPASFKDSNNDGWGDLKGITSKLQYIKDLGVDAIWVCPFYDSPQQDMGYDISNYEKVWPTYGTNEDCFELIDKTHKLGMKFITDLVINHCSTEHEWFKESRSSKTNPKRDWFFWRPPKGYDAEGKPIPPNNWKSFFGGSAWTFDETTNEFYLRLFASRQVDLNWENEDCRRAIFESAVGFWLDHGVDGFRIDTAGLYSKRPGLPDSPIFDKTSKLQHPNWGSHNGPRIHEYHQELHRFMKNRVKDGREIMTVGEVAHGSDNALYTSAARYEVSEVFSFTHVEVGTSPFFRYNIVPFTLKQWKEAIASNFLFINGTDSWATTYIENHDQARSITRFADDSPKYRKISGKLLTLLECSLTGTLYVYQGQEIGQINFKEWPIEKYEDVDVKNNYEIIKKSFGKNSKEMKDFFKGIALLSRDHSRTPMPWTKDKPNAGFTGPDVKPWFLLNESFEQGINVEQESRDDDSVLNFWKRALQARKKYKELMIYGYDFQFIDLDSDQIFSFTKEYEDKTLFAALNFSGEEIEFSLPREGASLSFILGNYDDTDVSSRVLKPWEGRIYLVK

Compound | type of inhibition of α-glucosidase (Lineweaver-Burk plot method) (α-glucosidase) | melting point | IC50 (α-glucosidase; mean ± SD from two independent experiments, pre-incubated with the enzyme at 37 °C for 30 min, pH 7.0)
CSC(=O)c1c(C)cc2c(c1O)CC(C(C)(C)O)O2 (stereo not shown) [Compound 1, eurothiocin A] | competitive inhibitors |  | 
CSC(=O)c1c(C)cc2c(c1O)CC(C(C)(O)CO)O2 (stereo not shown) [Compound 2, eurothiocin B] | competitive inhibitors | 122 to 123 °C | 
butyrolactone I [Compound 4] |  |  | 98.5 ± 3.3 µM
